Data as given in the supplement of paper PMC11451515.

Test system: NOMO1
Test: cell viability relative to DMSO control; higher = less cytotoxic
Details: 48 h
Procedure, shortened: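 Viability is a per-plate percentage relative to DMSO wells, with cell-free wells as background. CellTiter-Glo One luminescence was read after 48 h at 37°C on 1536-well plates (5 μl) of NOMO1 or SEM (500 cells/well) or P12-Ichikawa (1000 cells/well) leukemia cells. The cells had been adapted for at least four passages in each medium and pin-dosed with library compounds in DMSO from 47 μM to 0.79 nM in 11 threefold steps.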

[1] = HPLM + 10% dialyzed FBS, 0.000781 µM
[2] = HPLM + 10% dialyzed FBS, 0.00234 µM
[3] = HPLM + 10% dialyzed FBS, 0.00702 µM
[4] = HPLM + 10% dialyzed FBS, 0.0211 µM
[5] = HPLM + 10% dialyzed FBS, 0.0632 µM
[6] = HPLM + 10% dialyzed FBS, 0.19 µM
[7] = HPLM + 10% dialyzed FBS, 0.569 µM
[8] = HPLM + 10% dialyzed FBS, 1.71 µM
[9] = HPLM + 10% dialyzed FBS, 5.12 µM
[10] = HPLM + 10% dialyzed FBS, 15.4 µM
[11] = HPLM + 10% dialyzed FBS, 46.1 µM
[12] = RPMI 5 mM glucose + 10% FBS, 0.000781 µM
[13] = RPMI 5 mM glucose + 10% FBS, 0.00234 µM
[14] = RPMI 5 mM glucose + 10% FBS, 0.00702 µM
[15] = RPMI 5 mM glucose + 10% FBS, 0.0211 µM
[16] = RPMI 5 mM glucose + 10% FBS, 0.0632 µM
[17] = RPMI 5 mM glucose + 10% FBS, 0.19 µM
[18] = RPMI 5 mM glucose + 10% FBS, 0.569 µM
[19] = RPMI 5 mM glucose + 10% FBS, 1.71 µM
[20] = RPMI 5 mM glucose + 10% FBS, 5.12 µM
[21] = RPMI 5 mM glucose + 10% FBS, 15.4 µM
[22] = RPMI 5 mM glucose + 10% FBS, 46.1 µM
[23] = RPMI 5 mM glucose + 10% dialyzed FBS, 0.000781 µM
[24] = RPMI 5 mM glucose + 10% dialyzed FBS, 0.00234 µM
[25] = RPMI 5 mM glucose + 10% dialyzed FBS, 0.00702 µM
[26] = RPMI 5 mM glucose + 10% dialyzed FBS, 0.0211 µM
[27] = RPMI 5 mM glucose + 10% dialyzed FBS, 0.0632 µM
[28] = RPMI 5 mM glucose + 10% dialyzed FBS, 0.19 µM
[29] = RPMI 5 mM glucose + 10% dialyzed FBS, 0.569 µM
[30] = RPMI 5 mM glucose + 10% dialyzed FBS, 1.71 µM
[31] = RPMI 5 mM glucose + 10% dialyzed FBS, 5.12 µM
[32] = RPMI 5 mM glucose + 10% dialyzed FBS, 15.4 µM
[33] = RPMI 5 mM glucose + 10% dialyzed FBS, 46.1 µM

Row | Structure (SMILES) | cell viability [1] [%] | cell viability [2] [%] | cell viability [3] [%] | cell viability [4] [%] | cell viability [5] [%] | cell viability [6] [%] | cell viability [7] [%] | cell viability [8] [%] | cell viability [9] [%] | cell viability [10] [%] | cell viability [11] [%] | cell viability [12] [%] | cell viability [13] [%] | cell viability [14] [%] | cell viability [15] [%] | cell viability [16] [%] | cell viability [17] [%] | cell viability [18] [%] | cell viability [19] [%] | cell viability [20] [%] | cell viability [21] [%] | cell viability [22] [%] | cell viability [23] [%] | cell viability [24] [%] | cell viability [25] [%] | cell viability [26] [%] | cell viability [27] [%] | cell viability [28] [%] | cell viability [29] [%] | cell viability [30] [%] | cell viability [31] [%] | cell viability [32] [%] | cell viability [33] [%]
1 | CNC(=O)c1ccc2c(c1)NC(=O)/C2=C(\Nc1cccc(CN(C)C)c1)c1ccccc1 | 85.5 | 109 | 103 | 100 | 99.9 | 106 | 95 | 91.9 | 45.9 | 63.4 | 0.559 | 93.7 | 84.5 | 93.6 | 94.9 | 93.1 | 93.3 | 95.1 | 87.2 | 80 | 66.5 | 1.26 | 74.6 | 91.7 | 90.5 | 90.7 | 80 | 98.9 | 90.3 | 89.1 | 75.9 | 57.7 | 1.81
2 | NC1=NC(=O)N2CC12 (stereo not drawn) | 82 | 94.5 | 104 | 102 | 107 | 99.3 | 104 | 73.9 | 43.5 | 4.8 | 4.55 | 87.7 | 94.5 | 94.2 | 87.8 | 92.2 | 90.1 | 85.3 | 82.7 | 56.2 | 4.92 | 4.24 | 88.3 | 76.1 | 87.8 | 93.4 | 104 | 101 | 106 | 64.7 | 55.9 | 3.18 | 4.25
3 | NCCCC(N)(C(=O)O)C(F)F (stereo not drawn) | – | – | – | – | – | – | – | – | – | – | – | 123 | 137 | 122 | 125 | 132 | 111 | 125 | 120 | 109 | 107 | 95.1 | 121 | 112 | 115 | 113 | 126 | 112 | 108 | 125 | 100 | 111 | 90.1
4 | Cc1cc(Nc2ncc3c(n2)N(C)C(=O)N(c2cc(NC(=O)c4cccc(C(F)(F)F)c4)ccc2C)C3)n(C)n1 | 90.6 | 134 | 123 | 116 | 134 | 111 | 90.5 | 56.7 | 32.2 | 25.9 | 7.8 | 99.6 | 111 | 132 | 156 | 132 | 130 | 146 | 70.6 | 43.8 | 29.6 | 10.7 | 113 | 115 | 123 | 134 | 134 | 132 | 115 | 60.2 | 38.7 | 32.7 | 17.7
5 | N[S+](=O)([O-])c1ccc(Nc2nc(OCC3CCCCC3)c3[nH]cnc3n2)cc1 | 111 | 131 | 117 | 116 | 119 | 73.7 | 38.2 | 41.3 | 58.2 | 56.1 | 42.9 | 97.1 | 106 | 109 | 107 | 103 | 103 | 66.9 | 28.4 | 24.3 | 31.4 | 47.1 | 119 | 115 | 118 | 117 | 104 | 116 | 78.2 | 35.9 | 35 | 32 | 67.1
6 | CCn1nnc2c(N3CCOCC3)nc(-c3ccc(NC(=O)Nc4ccc(C(=O)N5CCN(C)CC5)cc4)cc3)nc21 | 117 | 109 | 94.2 | 67.2 | 63.4 | 53.9 | 101 | 65.7 | 60.7 | 51.4 | 48 | 90.8 | 107 | 94.1 | 85.6 | 76.5 | 67.7 | 105 | 79.9 | 72.4 | 69.9 | 61.2 | 89.3 | 97.2 | 89.7 | 75.3 | 60.9 | 60.2 | 89.8 | 62.5 | 53.5 | 55.9 | 56
7 | CCNC(=O)Nc1ccc(Oc2ncnc(N)c2/C=N/OC)cc1Cl | 104 | 113 | 111 | 115 | 109 | 113 | 133 | 125 | 127 | 105 | 111 | 112 | 118 | 114 | 115 | 119 | 113 | 113 | 121 | 118 | 124 | 122 | 90.2 | 113 | 98.1 | 101 | 114 | 109 | 117 | 112 | 103 | 109 | 125
8 | CO[C@H]1CCC(O[C@H]2C[C@H]([C@]3(C)CC[C@]4(C[C@H](O)[C@@H](C)[C@@H]([C@@H](C)/C=C(\C)C(=O)[C@H](C)C[C@H](C)C(=O)[O-])O4)O3)O[C@]3(O[C@@H]([C@H]4O[C@@](O)(CO)[C@H](C)C[C@@H]4C)C[C@@H]3C)[C@@H]2C)O[C@@H]1C (stereo partly drawn) | 112 | 124 | 136 | 109 | 134 | 101 | 118 | 88.8 | 84.4 | 63.7 | 55.1 | 123 | 121 | 113 | 122 | 145 | 121 | 124 | 118 | 111 | 97.6 | 67.7 | 112 | 122 | 133 | 118 | 111 | 114 | 132 | 106 | 48.9 | 78.2 | 64.2
